Test results: patent US20140056952A1, “METHODS AND COATINGS FOR TREATING BIOFILMS” (President and Fellows of Harvard College, priority 2011, published 2014)
“Also recorded” adds a separate entry of the source.

Key:
[1] = system: B. subtilis strain NCBI3610; assay: Pellicle (biofilm) formation inhibition assay in liquid biofilm-inducing medium; assay type: cell-based, Bacillus subtilis; details: for concentration needed for inhibition of biofilm formation: B. subtilis pellicle formation; for biofilm-inhibitory activity (library of polyamines): B. subtilis; for inhibition of pellicle formation: final concentration of 50 μM
Experimental: Bacillus subtilis strains PY79, 3610 and their derivatives were grown in Luria-Bertani (LB) medium at 37° C. or MSgg medium (1) at 23° C. Solid media contained 1.5% Bacto agar. When appropriate, antibiotics were added at the following concentrations for growth of B. subtilis: 10 μg per ml of tetracycline, and 5 μg per ml of erythromycin, 500 μg per ml of spectinomycin.
B. subtilis strain NCBI3610 was grown at 22° C. in 12-well plates in liquid biofilm-inducing medium for 3 or 8 days. Conditioned medium (500 ml) from an 8-day-old culture was concentrated on the C-18 column and eluted step-wise with methanol.
To identify the second biofilm-inhibiting factor, high-performance liquid chromatography (HPLC) was carried out on the 25% methanol eluate using a phenyl-hexyl column. […] Cells of NCBI3610 were grown in fresh medium containing PBS buffer (control), norspermidine (100 μM), morpholine (100 μM) HPLC-purified fatty acid (˜100 μM), or spermidine (100 μM).
Pellicle formation of strain NCBI 3610 was tested in the presence of the indicated concentrations of norspermidine (FIG. 1D) or spermidine (FIG. 1E).
To identify features of norspermidine important for its biofilm disassembly activity, we tested a library of polyamines in our biofilm inhibition assay (FIGS. 9A, 9B, 10 and Table 2).
The effect of polyamines on pellicle formation by B. subtilis was examined. B. subtilis wild-type cells were grown to a mid-logarithmic phase and diluted 1:1000 in biofilm media applied with each polyamine to the final concentration of 50 μM.
The effect of cyclic polyamines on biofilm formation by B. subtilis was examined. B. subtilis wild-type cells were grown to a mid-logarithmic phase and diluted 1:1000 in biofilm media (18A) or in a medium applied with cyclic compound 1,5,9-Triazacyclododecane to the final concentration of 50 μM (18B).

[2] = system: exopolysaccharide of B. subtilis NCBI 3610 cells; assay: Fluorescence microscopy of exopolysaccharide with concanavalin A-Texas Red; assay type: cell-based, Bacillus subtilis; details: norspermidine 25 μM, spermidine 1 mM
From the text: The cells were washed in PBS and stained for exopolysaccharide with a conjugate of concanavalin A with Texas-Red.
(§1) To investigate further, exopolysaccharide was visualized by fluorescence microscopy using a conjugate of the carbohydrate-binding protein concanavalin A with Texas Red (FIG. 5) (McSwain et al., 2005). As evidence of specificity, the conjugate decorated wild-type cells but not cells from a mutant (Δeps) blocked in exopolysaccharide production (FIG. 6A). Indeed, at an exposure at which concanavalin A staining with the wild type strain gave an extremely bright fluorescent signal, little or no signal could be detected for the Δeps mutant, except at long exposures and enhanced brightness (FIG. 6A). Next, we investigated the effects of norspermidine and spermidine. […] Therefore, the difference in the staining was evidently due to differential levels of cell-associated exopolysaccharide. […] Thus, while not being bound to any theory, it is believed that norspermidine disrupts the matrix and by targeting exopolysaccharide.

[3] = system: TasA-mCherry; assay: Fluorescence microscopy of TasA-mCherry fusion; assay type: cell-based, Bacillus subtilis; details: norspermidine 50 μM
Experimental: NCBI 3610 containing the tasA-mCherry fusion (DR30) was grown without shaking in a biofilm medium (upper row) or in the same medium applied with norspermidine (50 μM, lower row). Cells were washed in PBS, and visualized by fluorescence microscopy.
as §1

[4] = system: B. subtilis NCBI 3610; assay: Cell growth in MSgg medium with shaking; assay type: cell-based, Bacillus subtilis; details: norspermidine 100 μM
Experimental: NCBI 3610 was grown in MSgg medium applied with norspermidine (100 μM) with shaking or in untreated medium served as a control (NT). […] Therefore, whether norspermidine interacts directly with the exopolysaccharide was investigated. To attempt to detect such an interaction, dynamic light scattering was used. Dynamic scattering is a standard procedure for measuring the average radius of polymers in which a laser beam is transmitted through a sample containing polymers in solution (Berne, 1976; Orgad et al., 2011; Vinayahan et al., 2010).

[5] = system: S. aureus strain SCO1; assay: Submerged biofilm formation, crystal violet staining; assay type: cell-based, Staphylococcus aureus; details: norspermidine 10 μM, norspermine 100 μM; library at 500 μM
Experimental: (§2) The compounds were tested at 500 μM. Biofilm formation was visualized by crystal violet staining of submerged biofilms.
(§3) Whether polyamines might prevent biofilm formation by other bacteria that produce an exopolysaccharide matrix was examined. […] The compounds were tested at 500 μM. Biofilm formation was visualized by crystal violet staining of submerged biofilms.
Similarly, FIGS. 19A-H show the results of S. aureus strain SC-01 grown to a mid-logarithmic phase and diluted 1:1000 into a 12 wells plate in a TSB medium applied with NaCl (3%) and Glucose (0.5%). The medium was applied with norspermidine (10 μM), norspermine (100 μM) or spermine (500 μM). Planktonic cells were removed (19A-D). Wells were washed once, and incubated with Crystal Violet (0.1%) for 15 mins. Wells were washed twice in DDW (19E-H).
The effect of certain polyamines combined with biofilm-inhibiting D-amino acids in Staphylococcus was examined. S. aureus strain SC-01 was grown to a mid-logarithmic phase and diluted 1:1000 into a 12 wells plate in a TSB medium applied with NaCl (3%) and Glucose (0.5%). The medium was applied with either norspermidine or D-tyrosine or both as indicated below each panel. Planktonic cells were removed Wells were washed once, and incubated with Crystal Violet (0.1%) for 15 mins. Wells were washed twice in DDW.

[6] = system: E. coli strain MC4100; assay: as above; assay type: cell-based, Escherichia coli; details: library tested at 500 μM
Experimental: as §2, §3
(§4) In testing E. coli, the biofilm-proficient strain MC4100 was selected because a major component of exopolysacchride is colanic acid (Danese et al., 2000; Price and Raivio, 2009).

[7] = system: exopolysaccharide of S. aureus cells; assay: Fluorescence microscopy of exopolysaccharide staining; assay type: cell-based, Staphylococcus aureus
[8] = system: exopolysaccharide of E. coli cells; assay: as above; assay type: cell-based, Escherichia coli
From the text: as §4

[9] = system: B. subtilis wild-type cells; assay: Biofilm formation on solid biofilm medium; assay type: cell-based, Bacillus subtilis; details: 1 μl cells mixed with 1 μl (1 mM) polyamine
Experimental: B. subtilis wild-type cells were grown to a mid-logarithmic phase and 1 μl of cells was mixed with 1 μl (1 mM) of each polyamine. The mixture was plated on solid biofilm medium.
B. subtilis wild-type cells were grown to a mid-logarithmic phase and 1 μl of cells was either mixed with PBS (18C) or mixed with 1 μl (1 mM) of each polyamine (18D). The mixture was plated on solid biofilm medium. “3*” refers to 1,5,9-Triazacyclododecane.

[10] = system: P. aeriginosa strain PA14; assay: Biofilm formation on solid M63 medium; assay type: cell-based, Pseudomonas aeruginosa; details: 1 μl cells mixed with 1 μl (10 mM) polyamine
Experimental: The effect of polyamines on biofilm formation by Pseudomonas was examined. P. aeriginosa strain PA14 were grown to a mid-logarithmic phase and 1 μl of cells was mixed with 1 μl (10 mM) of each polyamine. The mixture was plated on solid M63 medium.

[11] = system: Proteus mirabilis strain BB2000; assay: Biofilm formation in polystyrene wells, crystal violet OD 595 nm; assay type: cell-based; details: 1 mM, 48 hours at 30° C., vs no treatment control
Experimental: To examine the effects of polyamines on biofilm formation, wells were initially treated with water (no treatment), 1 mM norspermidine, and 1 mM norspermine in 3 ml M9+glucose before inoculation with P. mirabilis. Biofilms were permitted to grow for 48 hours at 30° C. without shaking The amount of biofilm formed was assessed with the standard assay of crystal violet staining (O'Toole G et al., Biofilm formation as microbial development, Annu Rev. Microbiol. (2000) 54:49-79); supernatant was removed from the wells and crystal violet (at […]) was then incubated in each well for 15 minutes at room temperature, followed by removal of the crystal violet from the wells and a subsequent washes with water. Any crystal violet attached the wells was next solubilized with 95% ethanol for 15 minutes at room temperature, and the subsequent optical density at 595 nm in each well was measured with a multiplate reader.

[12] = system: B. subtilis strain NCBI3610; assay: Pellicle (biofilm) formation inhibition assay in liquid biofilm-inducing medium; assay type: cell-based, Bacillus subtilis
[13] = system: B. subtilis pellicles; assay: Disassembly of pre-formed pellicles (OD600 of medium vs pellicle); assay type: cell-based, Bacillus subtilis; details: 250 μM applied at day 2, additional 24 hrs
Experimental: After incubation for the indicated times, pellicle material and the medium were separated and each brought to a volume of 3 ml. After mild sonication, the OD600 was determined for each sample. The % of disassembly represents the OD600 of the medium as a percent of the sum of the OD600 of the medium and the OD600 of the pellicle. […] Thus, D-amino acids and norspermidine act synergistically in preventing biofilm formation and triggering the disassembly of mature biofilms.
Whether polyamines could trigger disassembly of biofilms formed by B. subtilis was examined. B. subtilis wild-type cells grown in liquid biofilm medium. Cells were grown to mid-logarithmic phase and diluted 1:1000 in liquid biofilm media. At day 2, pre-formed pellicles were applied with either PBS (A) or norspermine (250 μM) (B). Pellicles were incubated for additional 24 hrs.

In the case of 1,3-diaminopropane [Molecule 6], the “concentration needed for inhibition of biofilm formation” value [1] is reported as over 5 mM.
In the case of `NCCCNCCCN` [Molecule 1, N-(3-aminopropyl)propane-1,3-diamine], the “biofilm-inhibitory activity (library of polyamines)” value (shortened to “biofilm-inhibitory activity”) [1] is reported as “exhibited biofilm-inhibitory activity”, the “MBIC- Minimal Biofilm Inhibitory Concentration” value ([1]; B. subtilis biofilm inhibition assay) is reported as 25 to 50 µM and the “concentration at which biofilm formation was inhibited” value ([1]; authentic norspermidine, NCBI3610 pellicle) is reported as 25 µM. For the same molecule, the “inhibition of pellicle formation” value [1] was “inhibit biofilm formation”, the “pattern of exopolysaccharide staining” value [2] was “disrupted the relatively uniform, cell-associated pattern of staining” and the “effect on protein component of the matrix (TasA-mCherry)” value [3] was “little or no effect”. The cell growth [4] was “not significantly inhibited”, the “inhibition of biofilm formation by S. aureus” value [5] was “inhibited the formation of submerged biofilms; also recorded: inhibit biofilm formation” and the “inhibition of biofilm formation by E. coli” value [6] was “inhibited the formation of submerged biofilms”. The “staining of exopolysaccharide, S. aureus” value [7] was “markedly diminished staining”, the “staining of exopolysaccharide, E. coli” value [8] was “markedly diminished staining” and the “inhibition of biofilm formation on solid biofilm medium” value (“inhibition … on solid biofilm medium” for short) [9] was “inhibit biofilm formation”. For the same molecule, the “inhibition of biofilm formation by Pseudomonas” value [10] was “inhibit biofilm formation”, the “reduction of Proteus mirabilis biofilm formation” value [11] was “sufficient to reduce biofilm formation” and the “effect on residual pellicle of exopolysaccharide mutant” value ([12]; ΔepsH, DS76, 25 μM norspermidine) was “little effect”. The “effect on pellicle formation by amyloid fiber mutant” value ([12]; ΔtasA, FC55, 25 μM norspermidine) was “abolished pellicle formation”.
With `NCCCNCCCNCCCN` [Molecule 2, N′-[3-(3-aminopropylamino)propyl]propane-1,3-diamine] the “biofilm-inhibitory activity” value [1] was “exhibited biofilm-inhibitory activity”, the “inhibition of pellicle formation” value [1] was “inhibit biofilm formation” and the “disassembly of pre-formed pellicles” value [13] was “triggered disassembly”. The “inhibition of biofilm formation by S. aureus” value [5] was “inhibited the formation of submerged biofilms; also recorded: inhibit biofilm formation”, the “inhibition of biofilm formation by E. coli” value [6] was “inhibited the formation of submerged biofilms” and the “inhibition … on solid biofilm medium” value [9] was “inhibit biofilm formation”. The “inhibition of biofilm formation by Pseudomonas” value [10] was “inhibit biofilm formation” and the “reduction of Proteus mirabilis biofilm formation” value [11] was “sufficient to reduce biofilm formation”.
In the case of `NCCCCNCCCN` [Molecule 3, spermidine, reference compound], the “concentration needed for inhibition of biofilm formation” value [1] is reported as over 2 mM, the “inhibition of pellicle formation” value [1] is reported as “do not” and the “pattern of exopolysaccharide staining” value [2] is reported as “No such effect”. For the same molecule, the “inhibition … on solid biofilm medium” value [9] was “do not”.
In the case of `NCCCN(CCCN)CCCN` [Molecule 21, N^1,N^1-bis(3-aminopropyl)propane-1,3-diamine], the “biofilm-inhibitory activity” value [1] is reported as “did not block activity”.
With `C1CNCCCNCCCNC1` [c, 1,5,9-triazacyclododecane] the “inhibition of pellicle formation” value [1] was “inhibits biofilm formation” and the “inhibition … on solid biofilm medium” value [9] was “inhibits biofilm formation”.
With speramide [reference compound] the “inhibition of pellicle formation” value [1] was “do not” and the “inhibition … on solid biofilm medium” value [9] was “do not”.
